According to publication PMC8237267 (Journal of Medicinal Chemistry, 2021):
Entries after “also recorded” stand apart in the source; their conditions may differ.

Tests used:
[1] = In vitro stability in mouse hepatocytes; format: in vitro ADME
Protocol: The inhibitors (and controls) were formulated to concentrations of 100 μM in 50% acetonitrile/50% water. The medium (William’s E Medium supplemented with GlutaMAX) and hepatocyte thawing medium were allowed to reach room temperature and the hepatocytes and thawing medium and centrifuged at 100 g for 10 min. The supernatant was removed, and hepatocytes resuspended in the incubation medium (∼1.5 × 10^6 cells/mL). The cells were diluted to 0.5 × 10^6 viable cells/mL. A volume of 198 μL of hepatocytes was transferred to a 96-well noncoated plate and incubated at 37 °C for 10 min. Following this, 2 μL of the 100 μM test compounds or positive control was transferred into respective wells to start the reaction. At different time points (0, 15, 30, 60, 90, and 120 min), 25 μL aliquots were mixed with 6 volumes (150 μL) of acetonitrile containing internal standard, IS (100 nM alprazolam, 200 nM labetalol, 200 nM caffeine, and 200 nM diclofenac) to terminate the reaction. Samples were vortexed for 5 min and centrifuged for 45 min at 3220g, diluted by ultrapure water, followed by LC/MS/MS analysis. The in vitro half-life (T1/2) was determined by regression analysis of the percent parent disappearance vs time curve (T1/2 = 0.693/k) using Microsoft Excel.

CD-1 mice = assay: Maximum tolerated dose / 5 day toxicity study; format: in vivo; settings: 20 mg/kg P.O., daily for 5 days, listed as KT-531, 20 mg/kg
Protocol: Acute toxicity of the lead inhibitors was studied using 4–12 week old male CD-1 mice (Charles River). A concentration of 20 mg/kg of inhibitor via oral gavage was administered to mice (n = 5) over 5 days. The vehicle consisted of 10% DMSO, 5% Cremophor EL, and 85% saline. Mice were monitored daily for toxicity effects including excessive changes in weight and hair as well as changes to posture and inactivity. All mouse studies were approved by the Local Animal Care Committee at the University of Toronto and Office of Laboratory Animal Welfare (OLAW). The mice were housed in Tecniplast Blueline ventilated cages with environmental enrichment and fed a Teklad 2019 diet supplemented with municipal water.

[2] = Stability in mouse plasma; format: in vitro ADME; settings: read-out: Plasma stability t1/2
Protocol: The plasma stability of the compounds was evaluated in mouse plasma provided from Sigma-Aldrich, Oakville, Canada. The main stock solutions of the compounds were prepared at 10 mM in DMSO, which was diluted to 100 μM in 50% acetonitrile (ACN)/50% water. Aliquots of 356.5 μL of plasma proteins were placed in a heating block and allowed to equilibrate at 37 °C for 5 min. Then, 3.5 μL of 100 μM compound solutions were added to each vial (final concentration of 1 μM). Three quality control (QC) samples at 100, 500, and 1000 nM were prepared in 0.5% ACN. The vial contents were transferred in 50 μL aliquots at time points of 0.5, 5, 10, 20, 30, and 60 mi to a 96-well autosampler plate containing 150 μL of protein precipitation solution. Ice-cold ACN containing internals standards (100 nM glyburide) were used as the protein precipitation solution. After centrifugation at 4 °C, 5500 rpm for 15 min, the supernatant was diluted in MQ water, and injected into the LC/MS/MS for quantitative analysis.
The mobile phase consisted of (A) 0.1% (v/v) formic acid in Milli-Q water; (B) 0.1% (v/v) formic acid in acetonitrile. […] Peak areas were determined from extracted ion chromatograms. The in vitro half-life (t1/2) of parent compounds were determined by regression analysis of the percent parent disappearance vs time curve.

[3] = test system: primary T-PLL patient samples; assay: Drug combination synergy in primary T-PLL patient samples; format: cell-based, human
From the text: Primary T-PLL cells were isolated from peripheral blood (PB) of 10 T-PLL patients. All patients were diagnosed according to WHO criteria based on clinical features, immunophenotyping (flow cytometry and histochemisty; including TCL1 expression), and FISH/karyotyping.[71],[72] Samples were obtained from patients under IRB-approved protocols following written informed consent according to the Declaration of Helsinki. Collection and use of patient material have been approved for research purpose by the ethics committee of the University Hospital of Cologne (EudraCT-Nr.: #2008-001421-34 and AZ11-319) and Helsinki (303/13/03/01/2011).
PB mononuclear cells (PBMCs) of T-PLL samples were obtained by density gradient centrifugation (Histopaque; Sigma-Aldrich). All drug screening in primary T-PLL patient samples were conducted as previously described.[34],[73]

HDAC11 = biological target: T1, HDAC11 (Homo sapiens, UniProt Q96DB2); assay: HDAC EMSA activity assay (Nanosyn); format: biochemical; settings: read-out: IC50 HDAC11
T1 construct: The full-length human HDACs were recombinantly expressed and purified from SF9 insect cells; host or cells: SF9 insect cells
T1 sequence (Q96DB2 1-347): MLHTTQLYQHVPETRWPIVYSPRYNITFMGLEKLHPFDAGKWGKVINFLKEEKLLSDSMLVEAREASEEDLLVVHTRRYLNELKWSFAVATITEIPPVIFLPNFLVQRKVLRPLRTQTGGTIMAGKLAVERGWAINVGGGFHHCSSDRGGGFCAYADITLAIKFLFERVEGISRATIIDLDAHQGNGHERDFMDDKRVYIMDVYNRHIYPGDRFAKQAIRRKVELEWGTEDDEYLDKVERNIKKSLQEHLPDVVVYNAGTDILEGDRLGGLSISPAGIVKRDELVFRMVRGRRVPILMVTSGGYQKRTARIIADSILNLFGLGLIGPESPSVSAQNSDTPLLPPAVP

HDAC4 = biological target: T2, HDAC4 (Homo sapiens, UniProt P56524); assay: HDAC EMSA activity assay (Nanosyn); format: biochemical
T2 construct: The full-length human HDACs were recombinantly expressed and purified from SF9 insect cells; host or cells: SF9 insect cells

HDAC2 = biological target: T3, HDAC2 (Homo sapiens, UniProt Q92769); assay: HDAC EMSA activity assay (Nanosyn); format: biochemical
T3 construct: The full-length human HDACs were recombinantly expressed and purified from SF9 insect cells; host or cells: SF9 insect cells

[4] = read-out: Stability in mouse hepatocytes t1/2

T3 sequence (Q92769 whole entry): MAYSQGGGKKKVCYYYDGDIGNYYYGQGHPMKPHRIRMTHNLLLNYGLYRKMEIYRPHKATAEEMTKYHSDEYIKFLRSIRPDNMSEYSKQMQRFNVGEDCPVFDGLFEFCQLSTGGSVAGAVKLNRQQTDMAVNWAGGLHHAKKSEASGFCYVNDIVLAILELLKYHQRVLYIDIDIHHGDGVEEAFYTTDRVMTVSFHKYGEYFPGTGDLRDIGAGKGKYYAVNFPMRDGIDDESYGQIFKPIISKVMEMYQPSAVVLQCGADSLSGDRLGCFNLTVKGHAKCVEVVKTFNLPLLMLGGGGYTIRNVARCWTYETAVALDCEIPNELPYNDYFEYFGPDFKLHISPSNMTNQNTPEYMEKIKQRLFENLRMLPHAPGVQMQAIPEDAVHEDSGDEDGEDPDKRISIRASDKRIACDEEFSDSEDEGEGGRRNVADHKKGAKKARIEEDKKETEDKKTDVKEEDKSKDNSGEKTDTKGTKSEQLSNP
T2 sequence (P56524 whole entry): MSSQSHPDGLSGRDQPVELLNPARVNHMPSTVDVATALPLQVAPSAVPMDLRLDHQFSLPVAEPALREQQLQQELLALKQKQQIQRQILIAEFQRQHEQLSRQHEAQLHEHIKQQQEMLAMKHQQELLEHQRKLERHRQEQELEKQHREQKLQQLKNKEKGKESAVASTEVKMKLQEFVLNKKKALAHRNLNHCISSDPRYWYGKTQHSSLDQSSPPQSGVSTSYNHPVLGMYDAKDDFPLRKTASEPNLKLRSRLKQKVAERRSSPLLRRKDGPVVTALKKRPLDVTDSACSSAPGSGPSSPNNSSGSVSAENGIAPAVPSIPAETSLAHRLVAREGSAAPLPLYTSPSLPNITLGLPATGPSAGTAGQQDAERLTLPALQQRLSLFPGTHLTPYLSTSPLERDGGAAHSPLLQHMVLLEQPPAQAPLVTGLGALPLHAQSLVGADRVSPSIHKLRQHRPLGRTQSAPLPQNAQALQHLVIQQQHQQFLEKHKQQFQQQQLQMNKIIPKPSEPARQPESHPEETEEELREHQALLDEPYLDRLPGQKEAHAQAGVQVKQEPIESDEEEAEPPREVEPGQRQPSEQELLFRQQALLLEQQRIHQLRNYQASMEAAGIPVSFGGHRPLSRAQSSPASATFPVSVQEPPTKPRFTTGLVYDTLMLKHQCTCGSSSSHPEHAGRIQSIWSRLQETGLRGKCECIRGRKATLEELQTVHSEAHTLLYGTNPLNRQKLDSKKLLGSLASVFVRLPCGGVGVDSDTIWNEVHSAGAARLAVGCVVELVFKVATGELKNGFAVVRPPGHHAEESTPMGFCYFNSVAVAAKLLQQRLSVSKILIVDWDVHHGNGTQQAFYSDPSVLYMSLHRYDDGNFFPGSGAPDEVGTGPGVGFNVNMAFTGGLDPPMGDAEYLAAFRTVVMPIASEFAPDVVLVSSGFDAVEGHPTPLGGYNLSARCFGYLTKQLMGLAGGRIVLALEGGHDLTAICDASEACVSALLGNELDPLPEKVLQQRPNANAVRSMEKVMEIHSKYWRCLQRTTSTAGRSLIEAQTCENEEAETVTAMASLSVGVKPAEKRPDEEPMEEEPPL

## O=C(NO)c1ccc(CN(C2CC2)S(=O)(=O)c2cc(F)c(F)c(F)c2F)cc1 [Compound 14, 4-(((N-Cyclopropyl-2,3,4,5-tetrafluorophenyl)sulfonamido)methyl)-N-hydroxybenzamide]
[1]
  hepatocyte CLint at 2 h, 1 μM: 37.6 ± 0.6 µL/min/1e6 cells
[1]; [4]
  half-life at 1 μM: 37 min
  half-life at 2 h, 1 μM: 36.9 ± 0.59 min
CD-1 mice
  in vivo toxicity: no visible signs of toxicity or weight loss; also recorded: no observable toxicity in vivo
[2]
  half-life at 1 μM: 41 min
[3]
  combination with idasanutlin, bendamustine and venetoclax: All combinations revealed synergistic relationships in patient samples
HDAC11
  IC50: > 1000 nM
HDAC4
  IC50: > 1000 nM
HDAC2
  IC50: > 1000 nM
